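In this assay, cells in 96-well plates receive the compound at five concentrations for 48 hours. Endpoints are linearly interpolated between the surrounding concentrations. At the TGI there is no net growth.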
Columns and labels:
Assay in all cases: inhibition of tumour cell growth, NCI panel, 48 h
[1] = tested on: KM12 colon
[2] = tested on: 786-0 renal
[3] = tested on: NCI-H226 lung
[4] = tested on: HOP-62 NSCLC
[5] = tested on: RXF 393 renal
[6] = tested on: PC-3 prostate
[7] = tested on: SF-539 CNS
[8] = tested on: MCF7 breast
[9] = tested on: NCI-H522 lung
[10] = tested on: HL-60(TB) leukemia
[11] = tested on: HCT-15 colon
[12] = tested on: SK-MEL-28 melanoma
[13] = tested on: MDA-N
[14] = tested on: T-47D breast
[15] = tested on: EKVX NSCLC
[16] = tested on: HT29 colon
[17] = tested on: BT-549 breast
[18] = tested on: UO-31 renal
[19] = tested on: SF-295 CNS
[20] = tested on: HCT-116 colon
[21] = tested on: U251 CNS
[22] = tested on: OVCAR-4 ovarian
[23] = tested on: HOP-92 NSCLC
[24] = tested on: OVCAR-8 ovarian
[25] = tested on: NCI/ADR-RES ovarian
[26] = tested on: MDA-MB-435
[27] = tested on: CCRF-CEM leukemia
[28] = tested on: M14 melanoma
[29] = tested on: NCI-H23 lung
[30] = tested on: A549 NSCLC
[31] = tested on: SNB-19 CNS
[32] = tested on: SN12C renal
[33] = tested on: MDA-MB-231 breast
[34] = tested on: HS 578T breast
[35] = tested on: SK-MEL-5 melanoma
[36] = tested on: DU-145 prostate
[37] = tested on: NCI-H460 lung
[38] = tested on: ACHN renal
[39] = tested on: UACC-257 melanoma
[40] = tested on: CAKI-1 renal
[41] = tested on: MOLT-4 leukemia
[42] = tested on: UACC-62 melanoma
[43] = tested on: COLO 205 colon
[44] = tested on: K-562 leukemia
[45] = tested on: SF-268 CNS
[46] = tested on: MALME-3M melanoma
[47] = tested on: SNB-75 CNS
[48] = tested on: OVCAR-3 ovarian
[49] = tested on: RPMI-8226 leukemia
[50] = tested on: SK-MEL-2 melanoma
[51] = tested on: IGROV1 ovarian
[52] = tested on: HCC-2998 colon
[53] = tested on: TK-10 renal
[54] = tested on: SK-OV-3 ovarian
[55] = tested on: SW-620 colon
[56] = tested on: OVCAR-5 ovarian
[57] = tested on: A498 renal
[58] = tested on: LOX IMVI melanoma

Measured: TGI

COc1ccc(C(=O)C#Cc2cn(C3CC(O)C(CO)O3)c(=O)[nH]c2=O)cc1 (stereo not given)
> 10 µM: [10] | [27]
75 µM: [28]
45.9 µM: [23]
40.4 µM: [17]
45.1 µM: [7]
35.4 µM: [14]
34.9 µM: [48]
50.5 µM: [12]
22.7 µM: [46]
24.5 µM: [9]
not listed: [56] | [57] | [58]
> 100 µM: all other assays above

CC1CC(N)=C(C#N)C1(C#N)C#N (stereo not given)
59.7 µM: [40]
not listed: [4] | [12] | [17] | [22] | [27] | [35] | [37] | [48]
> 100 µM: all other assays above

— PubChem BioAssay (NCI)
